# Experimental data taken from patent publication US5534632A, “Macrocyclic carbamate immunomodulators” (Abbott Laboratories, priority 1994, dated 1996).
# Test system: human mixed lymphocyte reaction (MLR)
# Experiment: human mixed lymphocyte reaction (MLR) assay, immunosuppressant activity
# Type: cell-based
# Settings: Table 1
# Procedure: The immunosuppressant activity of the compounds of the present invention was determined using the human mixed lymphocyte reaction (MLR) assay described by Kino, T. et al. in Transplantation Proceedings, XIX(5):36-39,Suppl.
row,Compound,IC50 [nM]
1,CC[C@@H]1/C=C(\C)C[C@H](C)C[C@H](OC)[C@H]2O[C@@](O)(C(=O)C(=O)N3CCCC[C@H]3C(=O)O[C@H](/C(C)=C/[C@@H]3CC[C@@H](OC(=O)N4CCOCC4)[C@H](OC)C3)[C@H](C)[C@@H](O)CC1=O)[C@H](C)C[C@@H]2OC [Example 8],0.4
2,CC[C@@H]1/C=C(\C)C[C@H](C)C[C@H](OC)[C@H]2O[C@@](O)(C(=O)C(=O)N3CCCC[C@H]3C(=O)O[C@H](/C(C)=C/[C@@H]3CC[C@@H](OC(=O)N(C)CCN(CC)CC)[C@H](OC)C3)[C@H](C)[C@@H](O)CC1=O)[C@H](C)C[C@@H]2OC [Example 35],1.79
3,CC[C@@H]1/C=C(\C)C[C@H](C)C[C@H](OC)[C@H]2O[C@@](O)(C(=O)C(=O)N3CCCC[C@H]3C(=O)O[C@H](/C(C)=C/[C@@H]3CC[C@H](OC(=O)NC(CO)(CO)CO)[C@H](OC)C3)[C@H](C)[C@@H](O)CC1=O)[C@H](C)C[C@@H]2OC [Example 40],0.68
4,CC[C@@H]1/C=C(\C)C[C@H](C)C[C@H](OC)[C@H]2O[C@@](O)(C(=O)C(=O)N3CCCC[C@H]3C(=O)O[C@H](/C(C)=C/[C@@H]3CC[C@@H](OC(=O)Nc4ccncc4)[C@H](OC)C3)[C@H](C)[C@@H](O)CC1=O)[C@H](C)C[C@@H]2OC [Example 14],0.48
5,CC[C@@H]1/C=C(\C)C[C@H](C)C[C@H](OC)[C@H]2O[C@@](O)(C(=O)C(=O)N3CCCC[C@H]3C(=O)O[C@H](/C(C)=C/[C@@H]3CC[C@@H](OC(=O)N(C)C[C@H](O)[C@@H](O)[C@H](O)[C@H](O)CO)[C@H](OC)C3)[C@H](C)[C@@H](O)CC1=O)[C@H](C)C[C@@H]2OC [Example 23],50
6,CC[C@@H]1/C=C(\C)C[C@H](C)C[C@H](OC)[C@H]2O[C@@](O)(C(=O)C(=O)N3CCCC[C@H]3C(=O)O[C@H](/C(C)=C/[C@@H]3CC[C@H](OC(=O)Nc4ccncc4)[C@H](OC)C3)[C@H](C)[C@@H](O)CC1=O)[C@H](C)C[C@@H]2OC [Example 43],0.34
7,CC[C@@H]1/C=C(\C)C[C@H](C)C[C@H](OC)[C@H]2O[C@@](O)(C(=O)C(=O)N3CCCC[C@H]3C(=O)O[C@H](/C(C)=C/[C@@H]3CC[C@@H](OC(=O)N(CC)CCO)[C@H](OC)C3)[C@H](C)[C@@H](O)CC1=O)[C@H](C)C[C@@H]2OC [Example 28],4.26
8,CC[C@@H]1/C=C(\C)C[C@H](C)C[C@H](OC)[C@H]2O[C@@](O)(C(=O)C(=O)N3CCCC[C@H]3C(=O)O[C@H](/C(C)=C/[C@@H]3CC[C@@H](OC(=O)NNC(N)=O)[C@H](OC)C3)[C@H](C)[C@@H](O)CC1=O)[C@H](C)C[C@@H]2OC [Example 5],8.7
9,CC[C@@H]1/C=C(\C)C[C@H](C)C[C@H](OC)[C@H]2O[C@@](O)(C(=O)C(=O)N3CCCC[C@H]3C(=O)O[C@H](/C(C)=C/[C@@H]3CC[C@@H](OC(=O)N(C)O)[C@H](OC)C3)[C@H](C)[C@@H](O)CC1=O)[C@H](C)C[C@@H]2OC [Example 25],0.28
10,CC[C@@H]1/C=C(\C)C[C@H](C)C[C@H](OC)[C@H]2O[C@@](O)(C(=O)C(=O)N3CCCC[C@H]3C(=O)O[C@H](/C(C)=C/[C@@H]3CC[C@@H](OC(=O)N(C)Cc4ccccc4)[C@H](OC)C3)[C@H](C)[C@@H](O)CC1=O)[C@H](C)C[C@@H]2OC [Example 29],4.45
11,CC[C@@H]1/C=C(\C)C[C@H](C)C[C@H](OC)[C@H]2O[C@@](O)(C(=O)C(=O)N3CCCC[C@H]3C(=O)O[C@H](/C(C)=C/[C@@H]3CC[C@@H](OC(=O)N4CCC(O)CC4)[C@H](OC)C3)[C@H](C)[C@@H](O)CC1=O)[C@H](C)C[C@@H]2OC [Example 15],1.34
12,CC[C@@H]1/C=C(\C)C[C@H](C)C[C@H](OC)[C@H]2O[C@@](O)(C(=O)C(=O)N3CCCC[C@H]3C(=O)O[C@H](/C(C)=C/[C@@H]3CC[C@@H](OC(=O)N4CCOCCOCCOCCOCC4)[C@H](OC)C3)[C@H](C)[C@@H](O)CC1=O)[C@H](C)C[C@@H]2OC [Example 34],1.1
13,CC[C@@H]1/C=C(\C)C[C@H](C)C[C@H](OC)[C@H]2O[C@@](O)(C(=O)C(=O)N3CCCC[C@H]3C(=O)O[C@H](/C(C)=C/[C@@H]3CC[C@@H](OC(=O)N(CCO)CCO)[C@H](OC)C3)[C@H](C)[C@@H](O)CC1=O)[C@H](C)C[C@@H]2OC [Example 13],3.3
14,CC[C@@H]1/C=C(\C)C[C@H](C)C[C@H](OC)[C@H]2O[C@@](O)(C(=O)C(=O)N3CCCC[C@H]3C(=O)O[C@H](/C(C)=C/[C@@H]3CC[C@@H](OC(=O)NO)[C@H](OC)C3)[C@H](C)[C@@H](O)CC1=O)[C@H](C)C[C@@H]2OC [Example 27],1.28
15,CC[C@@H]1/C=C(\C)C[C@H](C)C[C@H](OC)[C@H]2O[C@@](O)(C(=O)C(=O)N3CCCC[C@H]3C(=O)O[C@H](/C(C)=C/[C@@H]3CC[C@@H](OC(=O)N4CCC(c5ccccc5)CC4)[C@H](OC)C3)[C@H](C)[C@@H](O)CC1=O)[C@H](C)C[C@@H]2OC [Example 19],2.6
16,CC[C@@H]1/C=C(\C)C[C@H](C)C[C@H](OC)[C@H]2O[C@@](O)(C(=O)C(=O)N3CCCC[C@H]3C(=O)O[C@H](/C(C)=C/[C@@H]3CC[C@@H](OC(=O)N4CCC(C(N)=O)CC4)[C@H](OC)C3)[C@H](C)[C@@H](O)CC1=O)[C@H](C)C[C@@H]2OC [Example 36],15
17,CC[C@@H]1/C=C(\C)C[C@H](C)C[C@H](OC)[C@H]2O[C@@](O)(C(=O)C(=O)N3CCCC[C@H]3C(=O)O[C@H](/C(C)=C/[C@@H]3CC[C@H](OC(=O)N4CCOCC4)[C@H](OC)C3)[C@H](C)[C@@H](O)CC1=O)[C@H](C)C[C@@H]2OC [Example 41],0.08
18,CC[C@@H]1/C=C(\C)C[C@H](C)C[C@H](OC)[C@H]2O[C@@](O)(C(=O)C(=O)N3CCCC[C@H]3C(=O)O[C@H](/C(C)=C/[C@@H]3CC[C@@H](OC(=O)N4CCN(C)CC4)[C@H](OC)C3)[C@H](C)[C@@H](O)CC1=O)[C@H](C)C[C@@H]2OC [Example 22],28
19,CC[C@@H]1/C=C(\C)C[C@H](C)C[C@H](OC)[C@H]2O[C@@](O)(C(=O)C(=O)N3CCCC[C@H]3C(=O)O[C@H](/C(C)=C/[C@@H]3CC[C@@H](OC(=O)N4CCCCC4)[C@H](OC)C3)[C@H](C)[C@@H](O)CC1=O)[C@H](C)C[C@@H]2OC [Example 12],1.2
20,CC[C@@H]1/C=C(\C)C[C@H](C)C[C@H](OC)[C@H]2O[C@@](O)(C(=O)C(=O)N3CCCC[C@H]3C(=O)O[C@H](/C(C)=C/[C@@H]3CC[C@@H](OC(=O)NOCc4ccccc4)[C@H](OC)C3)[C@H](C)[C@@H](O)CC1=O)[C@H](C)C[C@@H]2OC [Example 6],0.21
21,CC[C@@H]1/C=C(\C)C[C@H](C)C[C@H](OC)[C@H]2O[C@@](O)(C(=O)C(=O)N3CCCC[C@H]3C(=O)O[C@H](/C(C)=C/[C@@H]3CC[C@@H](OC(=O)N4CCC(=O)CC4)[C@H](OC)C3)[C@H](C)[C@@H](O)CC1=O)[C@H](C)C[C@@H]2OC [Example 16],4.75
22,CC[C@@H]1/C=C(\C)C[C@H](C)C[C@H](OC)[C@H]2O[C@@](O)(C(=O)C(=O)N3CCCC[C@H]3C(=O)O[C@H](/C(C)=C/[C@@H]3CC[C@@H](OC(=O)N(C)CCc4ccccc4)[C@H](OC)C3)[C@H](C)[C@@H](O)CC1=O)[C@H](C)C[C@@H]2OC [Example 30],4.2
23,CC[C@@H]1/C=C(\C)C[C@H](C)C[C@H](OC)[C@H]2O[C@@](O)(C(=O)C(=O)N3CCCC[C@H]3C(=O)O[C@H](/C(C)=C/[C@@H]3CC[C@@H](OC(=O)N(C)OC)[C@H](OC)C3)[C@H](C)[C@@H](O)CC1=O)[C@H](C)C[C@@H]2OC [Example 24],1.1
24,CC[C@@H]1/C=C(\C)C[C@H](C)C[C@H](OC)[C@H]2O[C@@](O)(C(=O)C(=O)N3CCCC[C@H]3C(=O)O[C@H](/C(C)=C/[C@@H]3CC[C@@H](OC(=O)N(O)C4CCCCC4)[C@H](OC)C3)[C@H](C)[C@@H](O)CC1=O)[C@H](C)C[C@@H]2OC [Example 26],1
25,CCOC(=O)CN(C)C(=O)O[C@@H]1CC[C@@H](/C=C(\C)[C@H]2OC(=O)[C@@H]3CCCCN3C(=O)C(=O)[C@]3(O)O[C@H]([C@@H](OC)C[C@@H](C)C/C(C)=C/[C@@H](CC)C(=O)C[C@H](O)[C@H]2C)[C@@H](OC)C[C@H]3C)C[C@H]1OC [Example 32],27
26,CC[C@@H]1/C=C(\C)C[C@H](C)C[C@H](OC)[C@H]2O[C@@](O)(C(=O)C(=O)N3CCCC[C@H]3C(=O)O[C@H](/C(C)=C/[C@@H]3CC[C@@H](OC(=O)N4CCC(C(=O)O)CC4)[C@H](OC)C3)[C@H](C)[C@@H](O)CC1=O)[C@H](C)C[C@@H]2OC [Example 18],13
27,CC[C@@H]1/C=C(\C)C[C@H](C)C[C@H](OC)[C@H]2O[C@@](O)(C(=O)C(=O)N3CCCC[C@H]3C(=O)O[C@H](/C(C)=C/[C@@H]3CC[C@@H](OC(=O)N4CCNCC4)[C@H](OC)C3)[C@H](C)[C@@H](O)CC1=O)[C@H](C)C[C@@H]2OC [Example 21],11
28,CC[C@@H]1/C=C(\C)C[C@H](C)C[C@H](OC)[C@H]2O[C@@](O)(C(=O)C(=O)N3CCCC[C@H]3C(=O)O[C@H](/C(C)=C/[C@@H]3CC[C@H](OC(=O)N(CCO)CCO)[C@H](OC)C3)[C@H](C)[C@@H](O)CC1=O)[C@H](C)C[C@@H]2OC [Example 45],0.11
